optimal solubility of β-cyclodextrin (distilled water): 20 mM | β-cyclodextrin solubility (water): 230 mM
SMILES: OC[C@H]1O[C@@H]2O[C@H]3[C@H](O)[C@@H](O)[C@@H](O[C@H]4[C@H](O)[C@@H](O)[C@@H](O[C@H]5[C@H](O)[C@@H](O)[C@@H](O[C@H]6[C@H](O)[C@@H](O)[C@@H](O[C@H]7[C@H](O)[C@@H](O)[C@@H](O[C@H]8[C@H](O)[C@@H](O)[C@@H](O[C@H]1[C@H](O)[C@H]2O)O[C@@H]8CO)O[C@@H]7CO)O[C@@H]6CO)O[C@@H]5CO)O[C@@H]4CO)O[C@@H]3CO [β-cyclodextrin]

Reference: patent publication EP1974751A1, “Formulations for non-steroidal anti-inflammatory drugs” (The Jordanian Pharmaceutical Manufacturing Co., priority 2007, dated 2008)
